According to ChEMBL document CHEMBL1201862, “PubChem BioAssay data set” (2004):
Calls of active or inactive are those of the source.

What was measured:
HEK293 = assay: cytotoxicity in HEK293T NF-kB-Luc cells, SAR follow-up, cytotoxicity control for NF-kB activator project, cell-based, resazurin fluorescence (AID 493251); type: functional; conditions: Homo sapiens
Exodeoxyribonuclease V = molecular target: T1, Exodeoxyribonuclease V (Escherichia coli (strain K12), UniProt P04993+P07648+P08394); assay: E. coli RecBCD inhibitors, dose response, counter-screen for AddAB inhibitor project, absorbance, V66 E. coli, mutant T4 phage (AID 492957); type: functional, cell-based, Escherichia coli str. K-12 substr. MG1655
T1 sequence (P04993 whole entry): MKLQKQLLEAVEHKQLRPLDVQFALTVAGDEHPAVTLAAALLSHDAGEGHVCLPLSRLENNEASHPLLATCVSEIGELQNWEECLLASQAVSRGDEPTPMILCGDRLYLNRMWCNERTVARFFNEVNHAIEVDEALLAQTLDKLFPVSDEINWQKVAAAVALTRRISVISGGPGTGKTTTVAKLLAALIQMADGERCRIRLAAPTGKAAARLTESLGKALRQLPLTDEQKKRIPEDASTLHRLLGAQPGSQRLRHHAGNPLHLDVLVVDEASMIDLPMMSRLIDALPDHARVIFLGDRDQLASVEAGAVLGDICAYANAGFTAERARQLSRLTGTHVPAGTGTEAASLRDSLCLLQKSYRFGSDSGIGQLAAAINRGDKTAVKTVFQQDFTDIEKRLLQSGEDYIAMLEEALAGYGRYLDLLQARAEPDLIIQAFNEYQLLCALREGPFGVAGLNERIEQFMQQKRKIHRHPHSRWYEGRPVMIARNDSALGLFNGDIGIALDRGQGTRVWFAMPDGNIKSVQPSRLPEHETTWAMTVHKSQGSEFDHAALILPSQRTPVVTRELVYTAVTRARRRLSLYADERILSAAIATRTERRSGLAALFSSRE
T1 sequence (P07648 whole entry): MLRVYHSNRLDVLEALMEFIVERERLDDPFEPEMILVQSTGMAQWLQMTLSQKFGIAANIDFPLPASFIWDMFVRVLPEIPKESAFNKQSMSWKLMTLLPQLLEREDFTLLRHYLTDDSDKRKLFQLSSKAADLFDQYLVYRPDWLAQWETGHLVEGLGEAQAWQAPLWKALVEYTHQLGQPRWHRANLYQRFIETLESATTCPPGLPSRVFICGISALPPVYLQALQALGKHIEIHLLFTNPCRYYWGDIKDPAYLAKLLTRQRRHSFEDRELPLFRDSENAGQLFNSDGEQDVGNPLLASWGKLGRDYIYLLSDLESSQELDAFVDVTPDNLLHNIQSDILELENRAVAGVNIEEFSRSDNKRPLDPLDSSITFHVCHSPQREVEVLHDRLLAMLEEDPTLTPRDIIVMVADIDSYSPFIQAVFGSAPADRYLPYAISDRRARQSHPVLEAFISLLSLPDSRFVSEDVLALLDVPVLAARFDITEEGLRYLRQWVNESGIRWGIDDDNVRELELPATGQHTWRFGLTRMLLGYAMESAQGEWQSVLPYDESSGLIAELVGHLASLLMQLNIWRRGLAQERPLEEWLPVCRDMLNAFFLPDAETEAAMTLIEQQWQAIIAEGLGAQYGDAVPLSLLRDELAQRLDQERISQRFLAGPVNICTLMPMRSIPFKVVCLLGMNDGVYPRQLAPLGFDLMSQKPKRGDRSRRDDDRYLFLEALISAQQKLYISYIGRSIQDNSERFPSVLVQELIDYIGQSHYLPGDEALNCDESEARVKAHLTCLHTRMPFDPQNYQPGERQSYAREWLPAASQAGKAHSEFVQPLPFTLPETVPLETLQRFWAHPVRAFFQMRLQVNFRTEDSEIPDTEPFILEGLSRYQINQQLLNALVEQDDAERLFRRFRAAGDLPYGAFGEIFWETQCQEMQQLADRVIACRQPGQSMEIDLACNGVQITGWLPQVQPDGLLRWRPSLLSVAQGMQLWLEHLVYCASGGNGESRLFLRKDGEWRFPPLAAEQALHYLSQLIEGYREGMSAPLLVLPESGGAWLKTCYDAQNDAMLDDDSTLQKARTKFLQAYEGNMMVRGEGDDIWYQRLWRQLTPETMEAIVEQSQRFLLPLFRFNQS
T1 sequence (P08394 whole entry): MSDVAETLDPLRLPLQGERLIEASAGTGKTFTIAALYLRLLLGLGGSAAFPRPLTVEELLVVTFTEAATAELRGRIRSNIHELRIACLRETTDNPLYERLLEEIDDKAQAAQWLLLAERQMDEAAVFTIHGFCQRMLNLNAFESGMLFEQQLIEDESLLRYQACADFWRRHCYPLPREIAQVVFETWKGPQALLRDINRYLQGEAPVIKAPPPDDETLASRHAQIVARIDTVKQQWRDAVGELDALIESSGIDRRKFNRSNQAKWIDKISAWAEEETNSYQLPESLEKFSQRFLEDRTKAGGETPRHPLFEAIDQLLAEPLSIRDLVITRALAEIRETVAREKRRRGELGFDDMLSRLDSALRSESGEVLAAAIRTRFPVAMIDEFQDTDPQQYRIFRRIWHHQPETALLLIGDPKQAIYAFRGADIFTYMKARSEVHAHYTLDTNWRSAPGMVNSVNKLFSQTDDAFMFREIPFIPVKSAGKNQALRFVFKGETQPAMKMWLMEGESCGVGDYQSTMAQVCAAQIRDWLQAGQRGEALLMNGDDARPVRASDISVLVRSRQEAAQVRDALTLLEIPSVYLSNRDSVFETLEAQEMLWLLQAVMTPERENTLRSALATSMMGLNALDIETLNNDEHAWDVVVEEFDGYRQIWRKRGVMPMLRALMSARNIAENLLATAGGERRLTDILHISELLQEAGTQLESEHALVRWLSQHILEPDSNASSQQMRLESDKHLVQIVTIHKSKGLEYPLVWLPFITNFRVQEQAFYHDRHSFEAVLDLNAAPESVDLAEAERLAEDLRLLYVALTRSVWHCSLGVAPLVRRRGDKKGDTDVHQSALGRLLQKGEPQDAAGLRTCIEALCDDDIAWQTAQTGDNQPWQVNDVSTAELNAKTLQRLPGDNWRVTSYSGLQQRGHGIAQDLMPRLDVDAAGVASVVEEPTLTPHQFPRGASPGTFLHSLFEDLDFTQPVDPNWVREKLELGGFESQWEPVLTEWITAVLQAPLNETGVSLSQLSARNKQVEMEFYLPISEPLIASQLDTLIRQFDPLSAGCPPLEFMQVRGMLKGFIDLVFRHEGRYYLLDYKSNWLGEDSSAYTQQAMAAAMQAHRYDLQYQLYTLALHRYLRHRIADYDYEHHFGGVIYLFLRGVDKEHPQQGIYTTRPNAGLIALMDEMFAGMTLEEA

[1] = HepG2 cell cytotoxicity, dose response, cytotoxicity control for non-replicating M. tuberculosis project (AID 489018); type: functional; conditions: Mycobacterium tuberculosis
BJ = assay: cytotoxicity toward Ras-transformed BJeLR fibroblasts, dose response, cell-based, alamar blue fluorescence, cherrypicked samples (AID 2631); type: functional; conditions: Homo sapiens;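 also: confirmatory dose-response assay in RAS-dependent BJ fibroblasts engineered with TERT, LT and ST, with cytotoxicity read by fluorescence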

CC(=O)NC(c1ccc2ccccc2c1)c1ccc2cccnc2c1O (centres undefined)
IC50 (HEK293): 21.5 µM (inactive) | IC50 (Exodeoxyribonuclease V): > 118 µM (inactive)

CCOC(=O)C1=C(c2ccccc2)N=C(N)NC1c1ccc(OCc2ccc(Cl)cc2)c(OC)c1 (centres undefined)
CC50 [1]: 13.1 µM (active)

CCOC(=O)c1c(C)[nH]c2c1-c1ccccc1C(=O)C2=O
EC50 (BJ): 0.554 µM (inconclusive)
